Our source for the TGI values is PubChem BioAssay (NCI).

Molecules are shown by their SMILES.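 96-well plates; 48 h exposure; 5 concentrations. Endpoints by linear interpolation between flanking doses. Not reached: highest tested concentration assigned. TGI is the concentration that stops growth completely.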

Among the test systems are NCI-H460 lung; SN12C renal; HCT-116 colon; CCRF-CEM leukemia; HCC-2998 colon; MOLT-4 leukemia; IGROV1 ovarian; UO-31 renal; SF-539 CNS; SK-MEL-28 melanoma; M14 melanoma; TK-10 renal; A549 NSCLC; CAKI-1 renal; NCI/ADR-RES ovarian; A498 renal; PC-3 prostate; OVCAR-5 ovarian; U251 CNS.
Common to all, as to assay: NCI-60 cell line screen, 48 h

Take `COC(=O)C(Cc1nc2ccccc2[nH]c1=O)C(=O)C(=O)Nc1ccc(F)cc1` (stereo not drawn): the TGI with NCI-H460 lung, in the experiment with SN12C renal, in the experiment with HCT-116 colon, with CCRF-CEM leukemia, in the experiment on HCC-2998 colon and with MOLT-4 leukemia was over 100 µM each time. The TGI is over 100 µM with IGROV1 ovarian; over 100 µM in the experiment with UO-31 renal; over 100 µM with SF-539 CNS; 89.1 µM in the experiment on SK-MEL-28 melanoma; over 100 µM in the experiment with M14 melanoma; over 100 µM with TK-10 renal. Besides, the TGI in the experiment with A549 NSCLC and in the experiment with CAKI-1 renal was over 100 µM each time.

Turning to `COc1ccc(Nc2nc3ccc(C(F)(F)F)cc3nc2C(=O)O)cc1`, the TGI with NCI/ADR-RES ovarian is over 100 µM; with A498 renal it was 57.2 µM; in the experiment with NCI-H460 lung, 83.7 µM; in the experiment on PC-3 prostate, 92.4 µM; with SN12C renal, over 100 µM; in the experiment with HCT-116 colon, over 100 µM. The TGI was 63.5 µM in the experiment with CCRF-CEM leukemia; 50 µM in the experiment with HCC-2998 colon; 98.6 µM in the experiment on MOLT-4 leukemia; 39.5 µM in the experiment on IGROV1 ovarian; 75.9 µM with SF-539 CNS; over 100 µM in the experiment with SK-MEL-28 melanoma. Besides, the TGI is over 100 µM with M14 melanoma; 84.9 µM in the experiment with OVCAR-5 ovarian; over 100 µM in the experiment on U251 CNS; over 100 µM in the experiment with TK-10 renal; over 100 µM in the experiment with A549 NSCLC; over 100 µM with CAKI-1 renal.

Take `C[N+](C)(C)CCOP(=O)([O-])OCCNC(=O)c1ccc2ccccc2c1`: the TGI with NCI/ADR-RES ovarian, in the experiment on PC-3 prostate, with SN12C renal, with HCT-116 colon, in the experiment with CCRF-CEM leukemia and in the experiment on HCC-2998 colon was over 100 µM throughout. Further, the TGI with MOLT-4 leukemia, in the experiment on IGROV1 ovarian, in the experiment on UO-31 renal, in the experiment on SF-539 CNS, in the experiment with SK-MEL-28 melanoma and in the experiment with M14 melanoma was over 100 µM each time. The TGI in the experiment with OVCAR-5 ovarian, in the experiment on U251 CNS, in the experiment with TK-10 renal, in the experiment on A549 NSCLC and with CAKI-1 renal was over 100 µM throughout.

`N#C/C(C(=O)Nc1ccc(Cl)cc1)=C(/N)N1CCOCC1`: the TGI in the experiment on NCI/ADR-RES ovarian, in the experiment on A498 renal, with NCI-H460 lung, in the experiment on PC-3 prostate, in the experiment on SN12C renal and in the experiment with HCT-116 colon was over 100 µM in each case. The TGI in the experiment with CCRF-CEM leukemia, in the experiment with HCC-2998 colon, in the experiment with MOLT-4 leukemia, in the experiment on IGROV1 ovarian, in the experiment on UO-31 renal and in the experiment with SF-539 CNS was over 100 µM in each case. Further, the TGI in the experiment with SK-MEL-28 melanoma, in the experiment with M14 melanoma, with OVCAR-5 ovarian, in the experiment with U251 CNS, with A549 NSCLC and in the experiment with CAKI-1 renal was over 100 µM in each case.

In the case of `COC1=CC(=O)C2C(C1=O)C(c1ccc(Cl)cc1)[C@@H]2C` (stereo partly drawn), the TGI is over 100 µM with A498 renal; 75.6 µM with NCI-H460 lung; 33.7 µM in the experiment with HCT-116 colon; 93.2 µM in the experiment on CCRF-CEM leukemia; over 100 µM with HCC-2998 colon; 81.7 µM with MOLT-4 leukemia. Further, the TGI is over 100 µM in the experiment on IGROV1 ovarian; 63.6 µM in the experiment on UO-31 renal; 51.2 µM with SF-539 CNS; over 100 µM in the experiment on SK-MEL-28 melanoma; 71.7 µM in the experiment with M14 melanoma; over 100 µM in the experiment with OVCAR-5 ovarian. For the same compound, the TGI is 62.9 µM in the experiment on U251 CNS, over 100 µM in the experiment on TK-10 renal, over 100 µM with A549 NSCLC and over 100 µM in the experiment with CAKI-1 renal.

Consider `Cc1nc2ccc(N)cc2[nH]c1=O`, for which the TGI in the experiment with A498 renal, in the experiment on NCI-H460 lung, with HCT-116 colon, with CCRF-CEM leukemia, in the experiment on HCC-2998 colon and in the experiment on MOLT-4 leukemia was over 100 µM in each case. In addition, the TGI in the experiment on IGROV1 ovarian, in the experiment on UO-31 renal, in the experiment with SF-539 CNS, in the experiment with M14 melanoma, in the experiment with OVCAR-5 ovarian and in the experiment on U251 CNS was over 100 µM in each case. The TGI in the experiment with TK-10 renal, in the experiment on A549 NSCLC and in the experiment with CAKI-1 renal was over 100 µM throughout.

`N#CC1CCCCC1NC1(C#N)CCCCC1` (stereo not drawn): the TGI with A498 renal, in the experiment on SN12C renal, with CCRF-CEM leukemia, with HCC-2998 colon, in the experiment on MOLT-4 leukemia and in the experiment with IGROV1 ovarian was over 100 µM in each case. Besides, the TGI with UO-31 renal, in the experiment on SF-539 CNS, in the experiment on SK-MEL-28 melanoma, in the experiment on M14 melanoma, in the experiment on U251 CNS and with TK-10 renal was over 100 µM throughout. Further, the TGI with A549 NSCLC and in the experiment on CAKI-1 renal was over 100 µM in each case.

As for `C=C(C)CC(C)(c1cc2ccccc2n1C)N1CCOCC1` (stereo not drawn), the TGI in the experiment with NCI-H460 lung, with SN12C renal, with HCT-116 colon, in the experiment on CCRF-CEM leukemia, with HCC-2998 colon and with MOLT-4 leukemia was over 100 µM throughout. In addition, the TGI in the experiment on IGROV1 ovarian, in the experiment on UO-31 renal, with SF-539 CNS, with SK-MEL-28 melanoma, in the experiment on M14 melanoma and in the experiment on TK-10 renal was over 100 µM in each case. Further, the TGI with A549 NSCLC and in the experiment on CAKI-1 renal was over 100 µM in each case.

In the case of `CCOC(=O)CC(NCc1ccc(N=Cc2nc3ccc(C(F)(F)F)cc3nc2-c2ccccc2)cc1)C(=O)OCC` (stereo not drawn), the TGI in the experiment with A498 renal, in the experiment on NCI-H460 lung, in the experiment with SN12C renal, with HCT-116 colon, in the experiment on CCRF-CEM leukemia and with HCC-2998 colon was over 100 µM each time. In addition, the TGI was over 100 µM in the experiment on MOLT-4 leukemia; over 100 µM with IGROV1 ovarian; over 100 µM in the experiment on UO-31 renal; over 58 µM in the experiment on SF-539 CNS; over 100 µM in the experiment with SK-MEL-28 melanoma; over 100 µM with M14 melanoma. In addition, the TGI with OVCAR-5 ovarian is over 100 µM; with U251 CNS, over 100 µM; in the experiment with TK-10 renal, over 80.6 µM; in the experiment on A549 NSCLC it was over 100 µM; in the experiment on CAKI-1 renal, over 100 µM.
